Read-outs that look alike come from different tables or passages of the source.
Tests used:
Type in all cases: cell-based
[1] = target: T1, α7^L131G,Q139L,Y217F-5HT3 S172A (Homo sapiens, UniProt P36544, L131G/M226I/Q139L/S172A/T225I/Y217F); assay: EC50 dose response, PSAM4-5HT3 with additional mutations; details: additional mutation S172A; read-out: EC50s (SEM) for additional mutations of α7^L131G, Q139L, Y217F -5HT3
T1 construct: expressed in transfected cells; host or cells: HEK 293

[2] = target: T2, α7^L131G,Q139L,Y217F-5HT3 H163T, S172V (Homo sapiens, UniProt P36544, H163T/L131G/M226I/Q139L/S172V/T225I/Y217F); assay: as above; details: read-out: EC50s (SEM) for additional mutations of α7^L131G, Q139L, Y217F -5HT3
T2 construct: expressed in transfected cells; host or cells: HEK 293

[3] = target: T3, α7^L131G,Q139L,Y217F-5HT3 H163S (Homo sapiens, UniProt P36544, H163S/L131G/M226I/Q139L/T225I/Y217F); assay: as above; details: additional mutation H163S; read-out: EC50s (SEM) for additional mutations of α7^L131G, Q139L, Y217F -5HT3
T3 construct: expressed in transfected cells; host or cells: HEK 293

[4] = target: T4, α7^L131G,Q139L,Y217F-5HT3 H163T (Homo sapiens, UniProt P36544, H163T/L131G/M226I/Q139L/T225I/Y217F); assay: as above; details: additional mutation H163T; read-out: EC50s (SEM) for additional mutations of α7^L131G, Q139L, Y217F -5HT3
T4 construct: expressed in transfected cells; host or cells: HEK 293

[5] = target: T5, α7-5HT3 L131G, Q139L, Y217H (Homo sapiens, UniProt P36544, L131G/M226I/Q139L/T225I/Y217H); assay: EC50 dose response, α7-5HT3 mutant; details: read-out: EC50s (SEM) for additional mutations of α7^L131G, Q139L, Y217F -5HT3
T5 construct: expressed in transfected cells; host or cells: HEK 293
T5 sequence (P36544 with tags, fused parts or gaps L131G/Q139L/Y217H/T225I/M226I limits assumed): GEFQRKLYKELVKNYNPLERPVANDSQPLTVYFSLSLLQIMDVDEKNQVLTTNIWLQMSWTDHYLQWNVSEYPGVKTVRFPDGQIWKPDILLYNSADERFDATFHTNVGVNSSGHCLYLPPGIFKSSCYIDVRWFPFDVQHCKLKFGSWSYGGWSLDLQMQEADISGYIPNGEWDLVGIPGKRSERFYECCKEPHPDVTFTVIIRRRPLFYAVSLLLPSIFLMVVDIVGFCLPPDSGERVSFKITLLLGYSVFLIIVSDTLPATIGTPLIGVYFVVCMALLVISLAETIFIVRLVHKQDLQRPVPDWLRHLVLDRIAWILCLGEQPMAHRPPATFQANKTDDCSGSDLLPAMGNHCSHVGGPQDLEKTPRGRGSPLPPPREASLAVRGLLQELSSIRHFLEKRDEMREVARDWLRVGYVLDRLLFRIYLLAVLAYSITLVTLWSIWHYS

[6] = target: T6, α7^L131G,Q139L,Y217F-5HT3 H163R (Homo sapiens, UniProt P36544, H163R/L131G/M226I/Q139L/T225I/Y217F); assay: EC50 dose response, PSAM4-5HT3 with additional mutations; details: additional mutation H163R; read-out: EC50s (SEM) for additional mutations of α7^L131G, Q139L, Y217F -5HT3
T6 construct: expressed in transfected cells; host or cells: HEK 293

[7] = target: T7, α7^L131G,Q139L,Y217F-5HT3 H163K (Homo sapiens, UniProt P36544, H163K/L131G/M226I/Q139L/T225I/Y217F); assay: as above; details: additional mutation H163K; read-out: EC50s (SEM) for additional mutations of α7^L131G, Q139L, Y217F -5HT3
T7 construct: expressed in transfected cells; host or cells: HEK 293

[8] = target: T8, α7^L131G,Q139L,Y217F-5HT3 H163T, S172A (Homo sapiens, UniProt P36544, H163T/L131G/M226I/Q139L/S172A/T225I/Y217F); assay: as above; details: read-out: EC50s (SEM) for additional mutations of α7^L131G, Q139L, Y217F -5HT3
T8 construct: expressed in transfected cells; host or cells: HEK 293

[9] = target: T9, α7^L131G,Q139L,Y217F-5HT3 H163N (Homo sapiens, UniProt P36544, H163N/L131G/M226I/Q139L/T225I/Y217F); assay: as above; details: additional mutation H163N; read-out: EC50s (SEM) for additional mutations of α7^L131G, Q139L, Y217F -5HT3
T9 construct: expressed in transfected cells; host or cells: HEK 293

[10] = target: T10, α7^L131G,Q139L,Y217F-5HT3 V154I, R155Y, W156N (Homo sapiens, UniProt P36544, L131G/M226I/Q139L/R155Y/T225I/V154I/W156N/Y217F); assay: as above; details: read-out: EC50s (SEM) for additional mutations of α7^L131G, Q139L, Y217F -5HT3
T10 construct: expressed in transfected cells; host or cells: HEK 293
T10 sequence (P36544 with tags, fused parts or gaps L131G/Q139L/V154I/R155Y/W156N/Y217F/T225I/M226I limits assumed): as the sequence (P36544 with tags, fused parts or gaps L131G/Q139L/Y217H/T225I/M226I limits assumed) above, with V132I, R133Y, W134N, H195F counted along it

[11] = target: T11, α7^L131G,Q139L,Y217F-5HT3 S172I (Homo sapiens, UniProt P36544, L131G/M226I/Q139L/S172I/T225I/Y217F); assay: as above; details: additional mutation S172I; read-out: EC50s (SEM) for additional mutations of α7^L131G, Q139L, Y217F -5HT3
T11 construct: expressed in transfected cells; host or cells: HEK 293

[12] = target: T12, α7-5HT3 L131G, Q139L, Y217A (Homo sapiens, UniProt P36544, L131G/M226I/Q139L/T225I/Y217A); assay: EC50 dose response, α7-5HT3 mutant; details: read-out: EC50s (SEM) for additional mutations of α7^L131G, Q139L, Y217F -5HT3
T12 construct: expressed in transfected cells; host or cells: HEK 293
T12 sequence (P36544 with tags, fused parts or gaps L131G/Q139L/Y217A/T225I/M226I limits assumed): as the sequence (P36544 with tags, fused parts or gaps L131G/Q139L/Y217H/T225I/M226I limits assumed) above, with H195A counted along it

[13] = target: T13, α7^L131G,Q139L,Y217F-5HT3 H163D (Homo sapiens, UniProt P36544, H163D/L131G/M226I/Q139L/T225I/Y217F); assay: EC50 dose response, PSAM4-5HT3 with additional mutations; details: additional mutation H163D; read-out: EC50s (SEM) for additional mutations of α7^L131G, Q139L, Y217F -5HT3
T13 construct: expressed in transfected cells; host or cells: HEK 293
T13 sequence (P36544 with tags, fused parts or gaps L131G/Q139L/H163D/Y217F/T225I/M226I limits assumed): as the sequence (P36544 with tags, fused parts or gaps L131G/Q139L/Y217H/T225I/M226I limits assumed) above, with H141D, H195F counted along it

[14] = target: T14, α7-5HT3 L131G, Q139L, Y217V (Homo sapiens, UniProt P36544, L131G/M226I/Q139L/T225I/Y217V); assay: EC50 dose response, α7-5HT3 mutant; details: read-out: EC50s (SEM) for additional mutations of α7^L131G, Q139L, Y217F -5HT3
T14 construct: 5HT3 ion pore domain (fusion partner); expressed in transfected cells; HEK 293 is named only for the electrophysiology

[15] = target: T15, α7^L131G,Q139L,Y217F-5HT3 H163V (Homo sapiens, UniProt P36544, H163V/L131G/M226I/Q139L/T225I/Y217F); assay: EC50 dose response, PSAM4-5HT3 with additional mutations; details: additional mutation H163V; read-out: EC50s (SEM) for additional mutations of α7^L131G, Q139L, Y217F -5HT3
T15 construct: expressed in transfected cells; host or cells: HEK 293
T15 sequence (P36544 with tags, fused parts or gaps L131G/Q139L/H163V/Y217F/T225I/M226I limits assumed): as the sequence (P36544 with tags, fused parts or gaps L131G/Q139L/Y217H/T225I/M226I limits assumed) above, with H141V, H195F counted along it

[16] = target: T16, PSAM4-5HT3 (α7-5HT3^L131G,Q139L,Y217F) (Homo sapiens, UniProt P36544, L131G/M226I/Q139L/T225I/Y217F); assay: EC50 dose response of LGIC ligands on PSAM4-5HT3; details: read-out: EC50s (SEM) for additional mutations of α7^L131G, Q139L, Y217F -5HT3
T16 construct: expressed in transfected cells; host or cells: HEK 293
T16 sequence (P36544 with tags, fused parts or gaps L131G/Q139L/Y217F/T225I/M226I limits assumed): as the sequence (P36544 with tags, fused parts or gaps L131G/Q139L/Y217H/T225I/M226I limits assumed) above, with H195F counted along it

[17] = target: T17, α7-5HT3 L131G, Q139L, W171F (Homo sapiens, UniProt P36544, L131G/M226I/Q139L/T225I/W171F); assay: EC50 dose response, α7-5HT3 mutant; details: read-out: EC50s (SEM) for additional mutations of α7^L131G, Q139L, Y217F -5HT3
T17 construct: expressed in transfected cells; host or cells: HEK 293
T17 sequence (P36544 with tags, fused parts or gaps L131G/Q139L/W171F/T225I/M226I limits assumed): as the sequence (P36544 with tags, fused parts or gaps L131G/Q139L/Y217H/T225I/M226I limits assumed) above, with W149F, H195Y counted along it

[18] = target: T18, α7^L131G,Q139L,Y217F-5HT3 V154I, R155Y, W156N, S172V (Homo sapiens, UniProt P36544, L131G/M226I/Q139L/R155Y/S172V/T225I/V154I/W156N/Y217F); assay: EC50 dose response, PSAM4-5HT3 with additional mutations; details: read-out: EC50s (SEM) for additional mutations of α7^L131G, Q139L, Y217F -5HT3
T18 construct: expressed in transfected cells; host or cells: HEK 293

[19] = target: T19, α7^L131G,Q139L,Y217F-5HT3 W156N (Homo sapiens, UniProt P36544, L131G/M226I/Q139L/T225I/W156N/Y217F); assay: cell-based
T19 construct: expressed in transfected cells; host or cells: HEK 293

[20] = target: T20, α7^L131G,Q139L,Y217F-5HT3 W156N, H163T (Homo sapiens, UniProt P36544, H163T/L131G/M226I/Q139L/T225I/W156N/Y217F); assay: EC50 dose response, PSAM4-5HT3 with additional mutations; details: read-out: EC50s (SEM) for additional mutations of α7^L131G, Q139L, Y217F -5HT3
T20 construct: expressed in transfected cells; host or cells: HEK 293

[21] = target: T21, α7^L131G,Q139L,Y217F-5HT3 V154L, R155Y, W156Q (Homo sapiens, UniProt P36544, L131G/M226I/Q139L/R155Y/T225I/V154L/W156Q/Y217F); assay: as above; details: read-out: EC50s (SEM) for additional mutations of α7^L131G, Q139L, Y217F -5HT3
T21 construct: expressed in transfected cells; host or cells: HEK 293
T21 sequence (P36544 with tags, fused parts or gaps L131G/Q139L/V154L/R155Y/W156Q/Y217F/T225I/M226I limits assumed): as the sequence (P36544 with tags, fused parts or gaps L131G/Q139L/Y217H/T225I/M226I limits assumed) above, with V132L, R133Y, W134Q, H195F counted along it

[22] = target: T22, α7^L131G,Q139L,Y217F-5HT3 S172V (Homo sapiens, UniProt P36544, L131G/M226I/Q139L/S172V/T225I/Y217F); assay: as above; details: additional mutation S172V; read-out: EC50s (SEM) for additional mutations of α7^L131G, Q139L, Y217F -5HT3
T22 construct: expressed in transfected cells; host or cells: HEK 293
T22 sequence (P36544 with tags, fused parts or gaps L131G/Q139L/S172V/Y217F/T225I/M226I limits assumed): as the sequence (P36544 with tags, fused parts or gaps L131G/Q139L/Y217H/T225I/M226I limits assumed) above, with S150V, H195F counted along it

[23] = target: T23, α7^L131G,Q139L,Y217F-5HT3 V154I, R155Y, W156N, S172A (Homo sapiens, UniProt P36544, L131G/M226I/Q139L/R155Y/S172A/T225I/V154I/W156N/Y217F); assay: as above; details: read-out: EC50s (SEM) for additional mutations of α7^L131G, Q139L, Y217F -5HT3
T23 construct: expressed in transfected cells; host or cells: HEK 293

[24] = target: T24, α7^L131G,Q139L,Y217F-5HT3 H163F (Homo sapiens, UniProt P36544, H163F/L131G/M226I/Q139L/T225I/Y217F); assay: as above; details: additional mutation H163F; read-out: EC50s (SEM) for additional mutations of α7^L131G, Q139L, Y217F -5HT3
T24 construct: expressed in transfected cells; host or cells: HEK 293
T24 sequence (P36544 with tags, fused parts or gaps L131G/Q139L/H163F/Y217F/T225I/M226I limits assumed): as the sequence (P36544 with tags, fused parts or gaps L131G/Q139L/Y217H/T225I/M226I limits assumed) above, with H141F, H195F counted along it

[25] = target: T25, α7^L131G,Q139L,Y217F-5HT3 H163A (Homo sapiens, UniProt P36544, H163A/L131G/M226I/Q139L/T225I/Y217F); assay: as above; details: additional mutation H163A; read-out: EC50s (SEM) for additional mutations of α7^L131G, Q139L, Y217F -5HT3
T25 construct: expressed in transfected cells; host or cells: HEK 293

T1 sequence (P36544 with tags, fused parts or gaps L131G/Q139L/S172A/Y217F/T225I/M226I limits assumed): as the sequence (P36544 with tags, fused parts or gaps L131G/Q139L/Y217H/T225I/M226I limits assumed) above, with S150A, H195F counted along it

Structure (SMILES): C[N+](C)(C)CCO [Choline, choline, reference compound]
- EC50 [1]: 349 µM
- EC50 [2]: 1330 µM
- EC50 [3]: 245 µM
- EC50 [4]: 330 µM
- EC50 [5]: 2060 µM
- EC50 [6]: 153 µM
- EC50 [7]: 168 µM
- EC50 [8]: 1020 µM
- EC50 [9]: 107 µM
- EC50 [10]: 330 µM
- EC50 [11]: 1110 µM
- EC50 [12]: 832 µM
- EC50 [13]: 361 µM
- EC50 [14]: 1160 µM
- EC50 [15]: 508 µM
- EC50 ([16]; PSAM4-5HT3 (no additional mutation)): 143 µM
- EC50 ([16]; line L131G, Q139L, Y217F (same values as PSAM4-5HT3 line)): 143 µM
- EC50 [17]: 177 µM
- EC50 [18]: 910 µM
- EC50 [19]: 172 µM
- EC50 [20]: 646 µM
- EC50 [21]: 94 µM
- EC50 [22]: 895 µM
- EC50 [23]: 680 µM
- EC50 [24]: 230 µM
- EC50 [25]: 219 µM

Reference: patent US20250145687A1, “MODIFIED LIGAND-GATED ION CHANNELS AND METHODS OF USE” (Howard Hughes Medical Institute, priority 2022, published 2025)
